Source: the NIST ThermoML archive (doi:10.1021/je060415l)
Several values for one entry are separate records, joined by “and”; a condition that tells them apart may be missing. Equal entries are not always repeated.

Experiment: isobaric coefficient of expansion
Conditions: Liquid, expansion method

CO [methanol]
Conditions	isobaric coefficient of expansion
196.17 K, 590 kPa	0.00112 1/K
196.97 K, 80030 kPa	0.000894 1/K
198.11 K, 590 kPa	0.00112 1/K
199.3 K, 80030 kPa	0.000894 1/K
200.13 K, 590 kPa	0.00112 1/K
201.61 K, 80030 kPa	0.000891 1/K
202.14 K, 590 kPa	0.00112 1/K and 0.00113 1/K
203.94 K, 80030 kPa	0.000891 1/K
204.09 K, 590 kPa	0.00112 1/K
206.06 K, 590 kPa	0.00112 1/K
206.3 K, 80030 kPa	0.000888 1/K
208.02 K, 590 kPa	0.00112 1/K
208.16 K, 20010 kPa	0.00105 1/K
208.68 K, 80030 kPa	0.000886 1/K
209.97 K, 590 kPa	0.00112 1/K and 0.00114 1/K
210.16 K, 20010 kPa	0.00104 1/K
210.17 K, 45100 kPa	0.000966 1/K
211.07 K, 80030 kPa	0.000883 1/K
211.93 K, 590 kPa	0.00111 1/K and 0.00112 1/K
212.17 K, 20010 kPa	0.00104 1/K
212.17 K, 45100 kPa	0.000968 1/K
213.46 K, 80030 kPa	0.00088 1/K
213.91 K, 590 kPa	0.00112 1/K and 0.00111 1/K
214.17 K, 20010 kPa	0.00104 1/K
214.17 K, 45100 kPa	0.000963 1/K
215.9 K, 590 kPa	0.00112 1/K
216 K, 80030 kPa	0.000874 1/K
216.17 K, 20010 kPa	0.00104 1/K
216.17 K, 45100 kPa	0.000964 1/K
217.87 K, 590 kPa	0.00112 1/K
218.17 K, 20010 kPa	0.00104 1/K
218.18 K, 45100 kPa	0.000965 1/K
218.19 K, 590 kPa	0.00111 1/K
219.84 K, 590 kPa	0.00112 1/K
220.16 K, 590 kPa	0.00113 1/K
220.18 K, 20010 kPa	0.00104 1/K
220.18 K, 45100 kPa	0.000962 1/K
220.38 K, 80030 kPa	0.000872 1/K
221.82 K, 590 kPa	0.00111 1/K
222.14 K, 590 kPa	0.00111 1/K
222.17 K, 20010 kPa	0.00104 1/K
222.18 K, 45100 kPa	0.000966 1/K
222.8 K, 80030 kPa	0.000867 1/K
223.82 K, 590 kPa	0.00112 1/K
224.15 K, 590 kPa	0.00111 1/K
224.17 K, 20010 kPa	0.00104 1/K
224.17 K, 45100 kPa	0.00096 1/K
225.25 K, 80030 kPa	0.000863 1/K
225.86 K, 590 kPa	0.00111 1/K
226.15 K, 590 kPa	0.00112 1/K
226.16 K, 45100 kPa	0.000962 1/K
226.17 K, 20010 kPa	0.00104 1/K
227.72 K, 80030 kPa	0.000861 1/K
227.95 K, 590 kPa	0.00112 1/K
228.15 K, 590 kPa	0.00112 1/K
228.16 K, 20010 kPa	0.00104 1/K
228.16 K, 45100 kPa	0.000958 1/K
230.04 K, 590 kPa	0.00111 1/K
230.16 K, 20010 kPa	0.00105 1/K
230.17 K, 590 kPa	0.00112 1/K
230.17 K, 45100 kPa	0.000957 1/K
230.17 K, 80030 kPa	0.00086 1/K
232.14 K, 590 kPa	0.00112 1/K
232.17 K, 20010 kPa	0.00104 1/K
232.17 K, 45100 kPa	0.000959 1/K
232.18 K, 590 kPa	0.00113 1/K
232.57 K, 80030 kPa	0.000869 1/K
234.16 K, 590 kPa	0.00113 1/K
234.17 K, 20010 kPa	0.00103 1/K
234.17 K, 45100 kPa	0.000956 1/K
234.19 K, 590 kPa	0.00112 1/K
234.98 K, 80030 kPa	0.000859 1/K
236.16 K, 590 kPa	0.00112 1/K
236.17 K, 20010 kPa	0.00104 1/K
236.17 K, 45100 kPa	0.000953 1/K
236.18 K, 590 kPa	0.00112 1/K
237.42 K, 80030 kPa	0.00086 1/K
238.17 K, 590 kPa	0.00112 1/K
238.17 K, 20010 kPa	0.00103 1/K
238.17 K, 45100 kPa	0.000949 1/K
239.85 K, 80030 kPa	0.000855 1/K
240.17 K, 590 kPa	0.00112 1/K
240.17 K, 45100 kPa	0.000949 1/K
240.25 K, 20010 kPa	0.00103 1/K
242.17 K, 590 kPa	0.00112 1/K
242.17 K, 45100 kPa	0.000942 1/K
242.25 K, 20010 kPa	0.00103 1/K
242.29 K, 80030 kPa	0.000853 1/K
244.18 K, 590 kPa	0.00112 1/K
244.18 K, 45100 kPa	0.000941 1/K
244.19 K, 20010 kPa	0.00103 1/K
244.74 K, 80030 kPa	0.000851 1/K
246.19 K, 590 kPa	0.00112 1/K
246.19 K, 20010 kPa	0.00104 1/K
247.21 K, 80030 kPa	0.000847 1/K
248.17 K, 20010 kPa	0.00104 1/K
248.17 K, 45100 kPa	0.000942 1/K
248.19 K, 590 kPa	0.00112 1/K
249.69 K, 80030 kPa	0.000847 1/K
250.17 K, 20010 kPa	0.00104 1/K
250.17 K, 45100 kPa	0.000939 1/K
250.18 K, 590 kPa	0.00112 1/K
252.18 K, 590 kPa	0.00113 1/K
252.18 K, 20010 kPa	0.00103 1/K
252.18 K, 45100 kPa	0.000938 1/K
252.2 K, 80030 kPa	0.000842 1/K
254.18 K, 590 kPa	0.00113 1/K
254.18 K, 20010 kPa	0.00103 1/K
254.18 K, 45100 kPa	0.00094 1/K
254.72 K, 80030 kPa	0.000837 1/K
256.17 K, 590 kPa	0.00114 1/K
256.17 K, 20010 kPa	0.00103 1/K
256.18 K, 45100 kPa	0.000937 1/K
257.2 K, 80030 kPa	0.00084 1/K
258.17 K, 590 kPa	0.00113 1/K
258.17 K, 20010 kPa	0.00104 1/K
258.18 K, 45100 kPa	0.000937 1/K
259.68 K, 80030 kPa	0.000841 1/K
260.18 K, 590 kPa	0.00113 1/K
260.18 K, 45100 kPa	0.000932 1/K
262.17 K, 590 kPa	0.00114 1/K
262.17 K, 20010 kPa	0.00103 1/K
262.17 K, 45100 kPa	0.000936 1/K
262.21 K, 80030 kPa	0.000841 1/K
264.17 K, 20010 kPa	0.00103 1/K
264.17 K, 45100 kPa	0.000938 1/K
264.77 K, 80030 kPa	0.000839 1/K
266.17 K, 590 kPa	0.00113 1/K
266.17 K, 20010 kPa	0.00103 1/K
266.17 K, 45100 kPa	0.000942 1/K
267.34 K, 80030 kPa	0.000835 1/K
268.16 K, 20010 kPa	0.00103 1/K
268.17 K, 590 kPa	0.00114 1/K
268.17 K, 45100 kPa	0.000934 1/K
269.32 K, 80030 kPa	0.000834 1/K
270.16 K, 590 kPa	0.00114 1/K
270.16 K, 20010 kPa	0.00104 1/K
272.14 K, 45100 kPa	0.00094 1/K
272.52 K, 80030 kPa	0.000831 1/K
274.14 K, 45100 kPa	0.000947 1/K
274.15 K, 20010 kPa	0.00104 1/K
275.11 K, 80030 kPa	0.000835 1/K
276.12 K, 590 kPa	0.00114 1/K
276.14 K, 45100 kPa	0.000938 1/K
276.15 K, 20010 kPa	0.00104 1/K
277.69 K, 80030 kPa	0.000835 1/K
278.13 K, 45100 kPa	0.00094 1/K
278.15 K, 20010 kPa	0.00104 1/K
278.16 K, 590 kPa	0.00115 1/K
280.14 K, 45100 kPa	0.00094 1/K
280.15 K, 20010 kPa	0.00104 1/K
280.16 K, 590 kPa	0.00115 1/K
280.28 K, 80030 kPa	0.000833 1/K
282.13 K, 45100 kPa	0.00094 1/K
282.15 K, 590 kPa	0.00116 1/K
282.15 K, 20010 kPa	0.00104 1/K
282.88 K, 80030 kPa	0.000832 1/K
284.13 K, 45100 kPa	0.000945 1/K
284.14 K, 590 kPa	0.00116 1/K
284.14 K, 20010 kPa	0.00104 1/K
285.53 K, 80030 kPa	0.000829 1/K
286.15 K, 590 kPa	0.00118 1/K
286.15 K, 20010 kPa	0.00105 1/K
288.14 K, 45100 kPa	0.000945 1/K
288.16 K, 590 kPa	0.00117 1/K
288.17 K, 80030 kPa	0.000826 1/K
289.13 K, 590 kPa	0.00118 1/K
290.13 K, 45100 kPa	0.000945 1/K
290.14 K, 20010 kPa	0.00106 1/K
290.16 K, 590 kPa	0.00117 1/K
290.79 K, 80030 kPa	0.000832 1/K
291.13 K, 590 kPa	0.00118 1/K
292.14 K, 45100 kPa	0.000943 1/K
292.15 K, 20010 kPa	0.00104 1/K
292.16 K, 590 kPa	0.00117 1/K
293.12 K, 590 kPa	0.00119 1/K
293.4 K, 80030 kPa	0.000846 1/K
294.13 K, 45100 kPa	0.000938 1/K
294.14 K, 20010 kPa	0.00105 1/K
294.16 K, 590 kPa	0.00118 1/K
295.12 K, 590 kPa	0.0012 1/K
296.02 K, 80030 kPa	0.000842 1/K
296.13 K, 45100 kPa	0.00094 1/K
296.14 K, 20010 kPa	0.00105 1/K
296.16 K, 590 kPa	0.00117 1/K
297.12 K, 590 kPa	0.00118 1/K
298.13 K, 45100 kPa	0.000942 1/K
298.15 K, 20010 kPa	0.00105 1/K
298.17 K, 590 kPa	0.00118 1/K
298.65 K, 80030 kPa	0.00085 1/K
300.16 K, 590 kPa	0.00119 1/K
301.27 K, 80030 kPa	0.000833 1/K
